Reference: US20120214760A1, “TREATMENT OF URINARY TRACT INFECTIONS WITH ANTIBACTERIAL AMINOGLYCOSIDE COMPOUNDS” (Achaogen, Inc., priority 2009, published 2012)
Converted amounts (≈) assume the structure as drawn. Read-outs that look alike come from different tables or passages of the source.

Experiments:
[1] = tested on: E. coli AECO040, AAC(6′)-I; test: MIC, aminoglycoside resistant strain; type: cell-based; details: Table 3
Experimental: Minimum inhibitory concentrations (MIC) were determined by reference Clinical and Laboratory Standards Institute (CLSI) broth microdilution methods per M7-A7 [2006]. Quality control ranges utilizing E. coli ATCC 25922, P. aeruginosa ATCC 27853 and S. aureus ATCC 29213, and interpretive criteria for comparator agents were as published in CLSI M100-S17 [2007]. Briefly, serial two-fold dilutions of the test compounds were prepared at 2× concentration in Mueller Hinton Broth. The compound dilutions were mixed in 96-well assay plates in a 1:1 ratio with bacterial inoculum. The inoculum was prepared by suspension of a colony from an agar plate that was prepared the previous day. Bacteria were suspended in sterile saline and added to each assay plate to obtain a final concentration of 5×10^5 CFU/mL. The plates were incubated at 35° C. for 20 hours in ambient air.
These MIC assays were conducted following the same protocol as set forth in Example 110. As shown, substituted sisomicin derivatives with groups other than methyl at the 6′-position have improved activity against strains expressing the AAC6′-modifying enzymes.

[2] = tested on: P. aeruginosa ATCC 27853 (APAE001); test: MIC, CLSI broth microdilution; type: cell-based; details: Pseudomonas aeruginosa, ATCC27853; Table 2; read-out: MIC P. aeruginosa
Outline: (§1)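 Broth microdilution per CLSI M7-A7, with serial two-fold compound dilutions in Mueller Hinton Broth mixed 1:1 with inoculum. Colonies from a previous-day agar plate were suspended in saline to a final 5×10^5 CFU/mL. Plates were incubated 20 hours at 35° C. in ambient air.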

[3] = tested on: E. coli ATCC 25922 (AECO001); test: MIC, CLSI broth microdilution; type: cell-based; details: for MIC: Escherichia coli
Outline: as §1

[4] = tested on: seven bacterial strains; test: Murine neutropenic thigh model, all strains; type: in vivo
Experimental: The in vivo activity of Example 1 in the mouse neutropenic thigh model (Andes and Craig. Antimicrob Agents Chemother. 2002, 46:1665-1670) was determined against seven bacterial strains including susceptible Escherichia coli and Klebsiella pneumoniae; multi-drug resistant (MDR) clinical isolates of E. coli and K. pneumoniae that display resistance to multiple antibiotics (including AGs); MRSA; and two K. pneumoniae carbapenemases (KPC)-expressing strains (see Table 5). For this efficacy model, groups of six CD-1 mice were rendered neutropenic by two intraperitoneal injections of cyclophosphamide. The first injection was 150 mg/kg three days prior to infection (day −4), and the second injection was 100 mg/kg one day prior to infection (day −1). On study day 0, animals were inoculated intramuscularly (0.1 ml) with a known number of colony forming units (CFU) of the specified bacterial strain (ATCC 25922, AECO 1003, ATCC 43816, AKPN 1073, AKPN 1109, ATCC 33591 or ASMA 1030), tailored to the virulence of each strain in the model to maximize bacterial load while avoiding mortality in the untreated control arms. Antibiotics were administered via subcutaneous injection at 2 and 14 hours after bacterial challenge. At 26 hours, infected thigh tissue was harvested, homogenized, and plated to count CFU. […]

[5] = tested on: E. coli AECO 1003, MDR; test: Murine neutropenic thigh model; type: in vivo
Experimental: Activity is presented as the log10 difference in CFU/thigh after 24 hours of antibiotic treatment compared to CFU/thigh just prior to antibiotic treatment (2 hours post-infection). Total dose per 24 hours is shown; dosing was q12 hours. 6 mice per group. Inoculum=1.5×10^3 CFU.
(§2) The in vivo activity of Example 1 in the mouse neutropenic thigh model (Andes and Craig. Antimicrob Agents Chemother. 2002, 46:1665-1670) was determined against seven bacterial strains including susceptible Escherichia coli and Klebsiella pneumoniae; multi-drug resistant (MDR) clinical isolates of E. coli and K. pneumoniae that display resistance to multiple antibiotics (including AGs); MRSA; and two K. pneumoniae carbapenemases (KPC)-expressing strains (see Table 5). For this efficacy model, groups of six CD-1 mice were rendered neutropenic by two intraperitoneal injections of cyclophosphamide. The first injection was 150 mg/kg three days prior to infection (day −4), and the second injection was 100 mg/kg one day prior to infection (day −1). On study day 0, animals were inoculated intramuscularly (0.1 ml) with a known number of colony forming units (CFU) of the specified bacterial strain (ATCC 25922, AECO 1003, ATCC 43816, AKPN 1073, AKPN 1109, ATCC 33591 or ASMA 1030), tailored to the virulence of each strain in the model to maximize bacterial load while avoiding mortality in the untreated control arms. Antibiotics were administered via subcutaneous injection at 2 and 14 hours after bacterial challenge. At 26 hours, infected thigh tissue was harvested, homogenized, and plated to count CFU. Untreated control animals were harvested at 2 hours post-infection to assess the initial bacterial load and at 26 hours post-infection to measure growth in the absence of antibiotic treatment.

[6] = tested on: S. aureus ATCC 33591, MRSA; test: Murine neutropenic thigh model; type: in vivo
Experimental: FIG. 4 is a line graph showing dose-responses of Example 1, arbekacin, gentamicin, vancomycin, and daptomycin in a murine neutropenic thigh model against an MRSA (ATCC 33591). Activity is presented as the log10 difference in CFU/thigh after 24 hours of antibiotic treatment compared to CFU/thigh just prior to antibiotic treatment (2 hours post-infection). Total dose per 24 hours is shown; dosing was q12 hours. 6 mice per group, Inoculum=1.2×10^3 CFU.
as §2

[7] = tested on: E. coli ATCC 25922, Susceptible; test: Murine neutropenic thigh model; type: in vivo
Experimental: as §2

[8] = tested on: S. marcescens ASMA 1030, KPC; test: Murine neutropenic thigh model; type: in vivo
Experimental: as §2

[9] = tested on: K. pneumoniae ATCC 43816, Susceptible; test: Murine neutropenic thigh model; type: in vivo
Experimental: as §2

`CN[C@@H]1[C@@H](O)[C@@H](O[C@@H]2[C@@H](O)[C@H](O[C@H]3OC(CNCCO)=CC[C@H]3N)[C@@H](N)C[C@H]2NC(=O)[C@@H](O)CCN)OC[C@]1(C)O` [Example 1, 6′-(2-Hydroxy-ethyl)-1-(4-amino-2(S)-hydroxy-butyryl)-sisomicin] gave an MIC AECO040 [1] of 0.5 mg/L (≈ 0.844 µM), an MIC [2] of 1 to 16 mg/L (≈ 1.69 to 27 µM) and an MIC ([3]; ATCC25922, Table 2, read-out: MIC E. coli) of less than 1 mg/L. It also gave an MIC ([3]; ATCC25922, Table 5, E. coli Susceptible ATCC 25922, read-out: MIC) of 1 mg/L (≈ 1.69 µM), an MIC ([3]; Table 1, AECO001 is ATCC25922, read-out: MIC AECO001) of less than 1 mg/L and an MIC AECO001 ([3]; Table 3, ATCC25922) of 0.5 mg/L (≈ 0.844 µM). The “bacterial titers versus initial bacterial load (static level)” value ([4]; all 7 strains) was “reducing bacterial titers back to or below the initial bacterial load”, the “in vivo efficacy in words” value ([4]; gentamicin resistant strains) was “efficacious” and the ED50/MIC ([5]; E. coli AECO 1003) was 14.6. For the same molecule, the ED50 ([5]; Escherichia coli, sc, neutropenic CD-1 mice, subcutaneous at 2 and 14 hours, E. coli AECO 1003) was 14.6 mg/kg, the “bacterial titer after 24 hours of treatment versus initial bacterial load at 2 hours post-inoculation” value ([5]; highest dosage, challenge 1.5×10^3 CFU AECO 1003, FIG. 1) was “reduced to below the initial bacterial load” and the ED50/MIC ([6]; S. aureus ATCC 33591) was 4.8-9.7. For the same molecule, the ED50 ([6]; Staphylococcus aureus, sc, neutropenic CD-1 mice, subcutaneous at 2 and 14 hours, S. aureus ATCC 33591) was 38.7 mg/kg, the “bacterial load after 24 hours of treatment versus initial bacterial load at 2 hours post-inoculation” value ([6]; two highest dosages, challenge 1.2×10^3 CFU ATCC 33591, FIG. 4) was “reduced to below the initial bacterial load” and the ED50/MIC [7] was 8.4. The ED50 ([7]; Escherichia coli, ATCC25922, sc, neutropenic CD-1 mice, subcutaneous at 2 and 14 hours) was 8.4 mg/kg, the ED50/MIC [8] was 16.5 and the ED50 ([8]; Serratia marcescens, sc, neutropenic CD-1 mice, subcutaneous at 2 and 14 hours) was 16.5 mg/kg. The ED50/MIC [9] was 7.4 and the ED50 ([9]; Klebsiella pneumoniae, ATCC43816, sc, neutropenic CD-1 mice, subcutaneous at 2 and 14 hours) was 3.7 mg/kg.
